Source: patent US20130102595A1 (Curis, Inc., priority 2011, published 2013)

Assays:
[1] = system: HDACs (HeLa cell nuclear extracts); assay: HDAC enzymatic activity, Biomol Color de Lys system; type: biochemical; conditions: 1 hour, 25° C.
In short: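 IC50 from sigmoidal fit of developer-terminated fluorescence (ex 350-380/em 440-460 nm). Reaction: 1 h at room temperature (25 °C), HeLa nuclear extract as HDAC source, artificial substrate, buffer of 50 mM Tris/Cl pH 8.0 with 137 mM NaCl, 2.7 mM KCl and 1 mM MgCl2.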

PI3Kα (p110α/p85α) = molecular target: T1, PI3Kα (p110α/p85α) (Homo sapiens, UniProt P42336); assay: PI3Kα ADP-Glo assay; type: biochemical; conditions: 20 μM PIP2, 10 μM ATP, 30 minutes
T1 construct: GST (N); made in house; host or cells: Baculovirus-infected Sf9 cells
T1 sequence (P42336 whole entry): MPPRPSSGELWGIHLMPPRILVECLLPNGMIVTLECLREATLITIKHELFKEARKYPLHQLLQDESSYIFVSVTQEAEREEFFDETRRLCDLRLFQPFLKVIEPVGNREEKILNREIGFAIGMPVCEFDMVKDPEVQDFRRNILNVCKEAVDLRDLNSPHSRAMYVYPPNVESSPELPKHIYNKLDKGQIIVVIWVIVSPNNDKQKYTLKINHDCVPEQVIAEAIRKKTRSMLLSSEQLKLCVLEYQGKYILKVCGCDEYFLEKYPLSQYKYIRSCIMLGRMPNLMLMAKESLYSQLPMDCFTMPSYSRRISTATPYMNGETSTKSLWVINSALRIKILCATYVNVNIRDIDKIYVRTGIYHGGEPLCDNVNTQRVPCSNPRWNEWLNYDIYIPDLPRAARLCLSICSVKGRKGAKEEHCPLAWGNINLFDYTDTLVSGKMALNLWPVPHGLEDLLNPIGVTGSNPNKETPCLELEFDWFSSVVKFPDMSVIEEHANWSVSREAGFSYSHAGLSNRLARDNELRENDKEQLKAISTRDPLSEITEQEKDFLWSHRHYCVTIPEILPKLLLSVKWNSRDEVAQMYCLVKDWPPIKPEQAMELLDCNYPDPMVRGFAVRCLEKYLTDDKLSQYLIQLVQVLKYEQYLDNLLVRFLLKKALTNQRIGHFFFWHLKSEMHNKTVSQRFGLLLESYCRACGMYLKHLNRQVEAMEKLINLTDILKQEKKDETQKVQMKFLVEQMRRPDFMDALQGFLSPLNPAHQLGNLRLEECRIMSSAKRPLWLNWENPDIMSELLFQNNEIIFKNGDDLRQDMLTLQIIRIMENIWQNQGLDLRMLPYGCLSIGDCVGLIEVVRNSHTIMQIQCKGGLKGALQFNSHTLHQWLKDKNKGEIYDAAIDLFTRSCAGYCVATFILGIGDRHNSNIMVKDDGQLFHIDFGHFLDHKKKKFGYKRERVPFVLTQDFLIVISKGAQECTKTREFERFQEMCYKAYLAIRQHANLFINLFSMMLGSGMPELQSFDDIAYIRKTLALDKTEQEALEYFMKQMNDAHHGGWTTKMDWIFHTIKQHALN
T1 sequence (P27986 whole entry partner): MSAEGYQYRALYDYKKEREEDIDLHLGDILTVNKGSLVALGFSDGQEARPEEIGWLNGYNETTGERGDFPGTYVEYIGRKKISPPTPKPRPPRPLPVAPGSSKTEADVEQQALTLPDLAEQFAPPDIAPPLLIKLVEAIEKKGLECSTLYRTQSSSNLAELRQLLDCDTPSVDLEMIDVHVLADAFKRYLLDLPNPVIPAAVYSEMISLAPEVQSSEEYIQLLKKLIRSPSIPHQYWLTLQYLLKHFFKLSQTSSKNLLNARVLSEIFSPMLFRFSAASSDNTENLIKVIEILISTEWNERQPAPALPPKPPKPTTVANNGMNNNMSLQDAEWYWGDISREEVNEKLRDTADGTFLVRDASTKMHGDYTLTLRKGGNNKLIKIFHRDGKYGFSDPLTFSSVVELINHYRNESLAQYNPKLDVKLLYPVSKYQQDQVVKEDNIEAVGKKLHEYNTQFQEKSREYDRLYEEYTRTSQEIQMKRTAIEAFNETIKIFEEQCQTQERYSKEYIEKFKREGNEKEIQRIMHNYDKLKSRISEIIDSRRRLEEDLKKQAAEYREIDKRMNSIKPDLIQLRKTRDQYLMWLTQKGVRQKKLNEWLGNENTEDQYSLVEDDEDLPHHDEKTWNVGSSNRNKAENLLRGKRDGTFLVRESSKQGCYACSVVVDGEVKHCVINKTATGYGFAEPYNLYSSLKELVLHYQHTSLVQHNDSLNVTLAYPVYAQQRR
In short: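 Luminescent ADP-Glo detection, after depletion of residual ATP, quantified ADP made by PI3Kα phosphorylating 20 μM PIP2 at 10 μM ATP. The kinase step ran 30 min at room temperature in HEPES pH 7.4 with MgCl2, DTT and orthovanadate, using baculovirus/Sf9-expressed full-length p110α/p85α complex.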

SMILES | IC50 [1] [nM] | IC50 (PI3Kα (p110α/p85α)) [nM] | melting point
CN(Cc1cc2nc(-c3cccc4[nH]ncc34)nc(N3CCOCC3)c2s1)c1ccc(/C=C/C(=O)NO)cc1 [Compound 81, (E)-3-(4-(((2-(1H-indazol-4-yl)-4-morpholinothieno[3,2-d]pyrimidin-6-yl)methyl)(methyl)amino)phenyl)-N-hydroxyacrylamide] | 1000 to 10000 | < 100 | 188 to 190 °C
CC(C)(C)CN(Cc1cc2nc(-c3cccc4[nH]ncc34)nc(N3CCOCC3)c2s1)c1ncc(C(=O)NO)cn1 [Compound 83, 2-(((2-(1H-indazol-4-yl)-4-morpholinothieno[3,2-d]pyrimidin-6-yl)methyl)(neopentyl)amino)-N-hydroxypyrimidine-5-carboxamide] | 1000 to 10000 | 100 to 1000 | 240 to 242 °C
CCCN(Cc1cc2nc(-c3cccc4[nH]ncc34)nc(N3CCOCC3)c2s1)c1ncc(C(=O)NO)cn1 [Compound 84, 2-(((2-(1H-indazol-4-yl)-4-morpholinothieno[3,2-d]pyrimidin-6-yl)methyl)(propyl)amino)-N-hydroxypyrimidine-5-carboxamide] | < 100 | < 100 | 224 to 226 °C
CCCCN(Cc1cc2nc(-c3cccc4[nH]ncc34)nc(N3CCOCC3)c2s1)c1ncc(C(=O)NO)cn1 [Compound 85, 2-(((2-(1H-indazol-4-yl)-4-morpholinothieno[3,2-d]pyrimidin-6-yl)methyl)(butyl)amino)-N-hydroxypyrimidine-5-carboxamide] | < 100 | 100 to 1000 | 234 to 236 °C
CC(C)CN(Cc1cc2nc(-c3cccc4[nH]ncc34)nc(N3CCOCC3)c2s1)c1ncc(C(=O)NO)cn1 [Compound 93, 2-(((2-(1H-indazol-4-yl)-4-morpholinothieno[3,2-d]pyrimidin-6-yl)methyl)(isobutyl)amino)-N-hydroxypyrimidine-5-carboxamide] | 100 to 1000 | 100 to 1000 | 196 to 198 °C
CN(CCCCCC(=O)NO)Cc1cc2nc(-c3cccc4[nH]ncc34)nc(N3CCOCC3)c2s1 [Compound 103, 6-(((2-(1H-indazol-4-yl)-4-morpholinothieno[3,2-d]pyrimidin-6-yl)methyl)(methyl)amino)-N-hydroxyhexanamide] | < 100 | 100 to 1000 | 115 to 118 °C
CN(CCCCCCC(=O)NO)Cc1cc2nc(-c3cccc4[nH]ncc34)nc(N3CCOCC3)c2s1 [Compound 104, 7-(((2-(1H-indazol-4-yl)-4-morpholinothieno[3,2-d]pyrimidin-6-yl)methyl)(methyl)amino)-N-hydroxyheptanamide] | 100 to 1000 | < 100 | 131 to 133 °C
CC(=O)Nc1cccc(-c2nc(N3CCOCC3)c3sc(CN(C)c4ncc(C(=O)NO)cn4)cc3n2)c1 [Compound 107, 2-(((2-(3-acetamidophenyl)-4-morpholinothieno[3,2-d]pyrimidin-6-yl)methyl)(methyl)amino)-N-hydroxypyrimidine-5-carboxamide] | < 100 | 1000 to 10000 | 183 to 185 °C
CN(C)c1cccc(-c2nc(N3CCOCC3)c3sc(CN(C)c4ncc(C(=O)NO)cn4)cc3n2)c1 [Compound 108, 2-(((2-(3-(dimethylamino)phenyl)-4-morpholinothieno[3,2-d]pyrimidin-6-yl)methyl)(methyl)amino)-N-hydroxypyrimidine-5-carboxamide] | < 100 | 1000 to 10000 | 172 to 175 °C
CN(C)c1ccc(-c2nc(N3CCOCC3)c3sc(CN(C)c4ncc(C(=O)NO)cn4)cc3n2)cn1 [Compound 114, 2-(((2-(6-(dimethylamino)pyridin-3-yl)-4-morpholinothieno[3,2-d]pyrimidin-6-yl)methyl)(methyl)amino)-N-hydroxypyrimidine-5-carboxamide] | < 100 | 100 to 1000 | 190 to 195 °C
CN(Cc1cc2nc(-c3cncnc3)nc(N3CCOCC3)c2s1)c1ncc(C(=O)NO)cn1 [Compound 119, N-hydroxy-2-(methyl((4-morpholino-2-(pyrimidin-5-yl)thieno[3,2-d]pyrimidin-6-yl)methyl)amino)pyrimidine-5-carboxamide] | < 100 | < 100 | 159 to 160 °C
CN(Cc1cc2nc(-c3cnc(CN)nc3)nc(N3CCOCC3)c2s1)c1ncc(C(=O)NO)cn1 [Compound 124, 2-(((2-(2-(aminomethyl)pyrimidin-5-yl)-4-morpholinothieno[3,2-d]pyrimidin-6-yl)methyl)(methyl)amino)-N-hydroxypyrimidine-5-carboxamide] | < 100 | < 100 | > 300 °C
CN(Cc1cc2nc(-c3ccccc3)nc(N3CCOCC3)c2s1)c1ncc(C(=O)NO)cn1 [Compound 129, N-hydroxy-2-(methyl((4-morpholino-2-phenylthieno[3,2-d]pyrimidin-6-yl)methyl)amino)pyrimidine-5-carboxamide] | < 100 | > 10000 | 199 to 200 °C

Results, then the compound that gave them:

IC50 [1] [nM] | IC50 (PI3Kα (p110α/p85α)) [nM] | melting point | SMILES
< 100 | 100 to 1000 | 179 to 181 °C | COc1cccc(-c2nc(N3CCOCC3)c3sc(CN(C)c4ncc(C(=O)NO)cn4)cc3n2)c1 [Compound 130, N-hydroxy-2-(((2-(3-methoxyphenyl)-4-morpholinothieno[3,2-d]pyrimidin-6-yl)methyl)(methyl)amino)pyrimidine-5-carboxamide]
< 100 | > 10000 | 247 °C (dec.) | COc1ccc(-c2nc(N3CCOCC3)c3sc(CN(C)c4ncc(C(=O)NO)cn4)cc3n2)cc1 [Compound 131, N-hydroxy-2-(((2-(4-methoxyphenyl)-4-morpholinothieno[3,2-d]pyrimidin-6-yl)methyl)(methyl)amino)pyrimidine-5-carboxamide]
< 100 | 100 to 1000 | 185 to 195 °C | CN(Cc1cc2nc(-c3ccc(O)cc3)nc(N3CCOCC3)c2s1)c1ncc(C(=O)NO)cn1 [Compound 133, N-hydroxy-2-(((2-(4-hydroxyphenyl)-4-morpholinothieno[3,2-d]pyrimidin-6-yl)methyl)(methyl)amino)pyrimidine-5-carboxamide]
< 100 | 100 to 1000 | 179 to 182 °C | CN(Cc1cc2nc(-c3cccc(N)c3)nc(N3CCOCC3)c2s1)c1ncc(C(=O)NO)cn1 [Compound 134, 2-(((2-(3-aminophenyl)-4-morpholinothieno[3,2-d]pyrimidin-6-yl)methyl)(methyl)amino)-N-hydroxypyrimidine-5-carboxamide]
< 100 | 100 to 1000 | 184 to 186 °C | CN(Cc1cc2nc(-c3ccc(CN)cc3)nc(N3CCOCC3)c2s1)c1ncc(C(=O)NO)cn1 [Compound 135, 2-(((2-(4-(aminomethyl)phenyl)-4-morpholinothieno[3,2-d]pyrimidin-6-yl)methyl)(methyl)amino)-N-hydroxypyrimidine-5-carboxamide]
< 100 | 1000 to 10000 | 173 to 176 °C | CN(Cc1cc2nc(-c3cccc(CN)c3)nc(N3CCOCC3)c2s1)c1ncc(C(=O)NO)cn1 [Compound 137, 2-(((2-(3-(aminomethyl)phenyl)-4-morpholinothieno[3,2-d]pyrimidin-6-yl)methyl)(methyl)amino)-N-hydroxypyrimidine-5-carboxamide]
